This data set relates to fibroblasts. Kind of data set: fibroblast cytotoxicity test (MTT). Format: cell-based. The source says:
In FIG. 3, the following meanings apply: Mic: miconazole, Tri: trimetoprim, Rif: rifampicin, Irg: Irgasan, Gen: gentamicin, Fus: fusidic acid, Oct: octenidine, Ben: benzylpenicillin, Chl: chlorohexidine, Cli: clindamycine.

For the compound `Oc1cc(Cl)ccc1Oc1ccc(Cl)cc1Cl` [Irgasan, 5-chloro-2-(2,4-dichlorophenoxy)phenol], the “maximum concentration up to which fibroblasts are hardly inhibited and the substance is non-toxic” value (FIG. 3, MTT) is ≤ 10 µg/mL. For the same compound, the “adverse affection in fibroblast-cytotoxicity test” value (Irgasan release (cm^2) of 2-4 mg/I, release rates for inhibition zones of about 20 mm) is on record as “only a minimum adverse affection”.

The values are drawn from patent US12383699B2, “Catheter attachment made of plastic that contains molecularly dispersed polychlorinated phenoxyphenol (PCPP)” (priority 2017, dated 2025).
